Results on 20 compounds are retold here after ChEMBL document CHEMBL1909046, “DrugMatrix in vitro pharmacology data”.

Assay [1] can be described thus: DRUGMATRIX: Phorbol Ester radioligand binding (ligand: [3H] PDBu). It counts as cell membranes, Mus musculus, ICR, Brain, Membrane. Conditions: Not Active = under 50% inhibition at 10 µM.
Assay [2] addresses T1, Alpha-2C adrenergic receptor (Homo sapiens, UniProt P18825).
T1 sequence (P18825 whole entry): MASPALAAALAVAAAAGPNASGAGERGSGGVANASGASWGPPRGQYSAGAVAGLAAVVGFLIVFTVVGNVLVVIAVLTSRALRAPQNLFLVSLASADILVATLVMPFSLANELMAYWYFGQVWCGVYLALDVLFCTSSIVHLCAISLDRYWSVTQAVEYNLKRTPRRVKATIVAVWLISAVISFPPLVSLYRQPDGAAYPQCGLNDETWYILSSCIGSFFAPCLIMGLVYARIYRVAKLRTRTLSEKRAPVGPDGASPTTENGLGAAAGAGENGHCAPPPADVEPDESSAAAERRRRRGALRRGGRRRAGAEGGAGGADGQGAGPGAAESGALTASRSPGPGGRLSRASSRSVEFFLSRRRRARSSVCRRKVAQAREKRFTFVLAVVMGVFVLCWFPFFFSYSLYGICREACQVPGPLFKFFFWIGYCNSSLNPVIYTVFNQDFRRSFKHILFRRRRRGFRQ
The assay can be described thus: DRUGMATRIX: Adrenergic Alpha-2C radioligand binding (ligand: [3H] MK-912). The settings on record: sf9. It counts as cell membranes, Sf9, Membrane.

Assay [3] can be described thus: DRUGMATRIX: Tumor Necrosis Factor (TNF), Non-Selective radioligand binding (ligand: [125I] TNF-alpha). It counts as cell membranes, Membrane. The settings on record: u-937; Not Active = under 50% inhibition at 10 µM.
Assay [4] has as its target Beta-1 adrenergic receptor (Homo sapiens, UniProt P08588). The assay can be described thus: DRUGMATRIX: Adrenergic beta1 radioligand binding (ligand: [125I] Cyanopindolol). The class given is cell membranes, CHO-K1, Membrane. Conditions: cho-k1; Not Active = under 50% inhibition at 10 µM.
Assay [5] deals with Mitogen-activated protein kinase 1 (Homo sapiens, UniProt P28482). The assay can be described thus: DRUGMATRIX: Protein Serine/Threonine Kinase, ERK2 enzyme inhibition (substrate: Myelin Basic Protein). Further details: species or system Escherichia coli. Conditions: Not Active = under 50% inhibition at 10 µM.
Assay [6] in a line: DRUGMATRIX: Leukotriene, BLT (LTB4) radioligand binding (ligand: [3H]LTB4). It counts as cell membranes, Membrane. The settings on record: u-937; Not Active = under 50% inhibition at 10 µM.

Usually IC50 stands for the concentration at which inhibition is half-maximal.

Beta-1 adrenergic receptor, sequence (P08588 whole entry): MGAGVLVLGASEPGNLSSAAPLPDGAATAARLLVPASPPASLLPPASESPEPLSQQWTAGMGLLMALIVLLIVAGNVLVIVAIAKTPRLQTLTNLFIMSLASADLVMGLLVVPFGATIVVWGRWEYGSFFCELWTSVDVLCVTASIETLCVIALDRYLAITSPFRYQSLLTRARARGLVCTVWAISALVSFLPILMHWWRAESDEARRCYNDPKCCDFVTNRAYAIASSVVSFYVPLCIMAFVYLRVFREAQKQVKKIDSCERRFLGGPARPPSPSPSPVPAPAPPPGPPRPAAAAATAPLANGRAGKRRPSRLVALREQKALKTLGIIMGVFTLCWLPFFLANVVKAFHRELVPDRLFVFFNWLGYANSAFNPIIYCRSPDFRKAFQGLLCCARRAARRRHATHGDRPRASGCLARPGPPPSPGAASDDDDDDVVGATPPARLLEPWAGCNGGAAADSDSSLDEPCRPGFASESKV
Mitogen-activated protein kinase 1, sequence (P28482 whole entry): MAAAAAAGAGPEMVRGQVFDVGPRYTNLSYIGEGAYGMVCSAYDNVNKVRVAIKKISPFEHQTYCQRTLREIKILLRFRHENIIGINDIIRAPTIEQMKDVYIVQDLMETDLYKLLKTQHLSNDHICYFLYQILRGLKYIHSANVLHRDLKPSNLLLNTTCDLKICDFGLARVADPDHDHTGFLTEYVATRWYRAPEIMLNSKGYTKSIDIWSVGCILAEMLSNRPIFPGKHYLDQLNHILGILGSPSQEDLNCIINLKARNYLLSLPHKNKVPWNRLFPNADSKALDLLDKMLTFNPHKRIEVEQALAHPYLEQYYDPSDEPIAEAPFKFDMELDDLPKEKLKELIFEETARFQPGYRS

For `Cc1cn([C@H]2C=C[C@@H](CO)O2)c(=O)[nH]c1=O` [STAVUDINE], the IC50 entry in assay [1], in assay [2], in assay [3], in assay [4], in assay [5] and in assay [6] was “Not Active” in each case. Also, the Ki entry in assay [1], in assay [3] and in assay [6] was “Not Active” throughout.
In the case of `COC(=O)Nc1nc2ccc(C(=O)c3ccccc3)cc2[nH]1` [MEBENDAZOLE], the half-inhibitory concentration (IC50) entry in assay [1], in assay [2], in assay [3], in assay [4], in assay [5] and in assay [6] was “Not Active” in each case. The Ki entry in assay [1], in assay [3] and in assay [6] was “Not Active” each time.
For the compound `CC[C@H](C)C(=O)O[C@H]1CCC=C2C=C[C@H](C)[C@H](CC[C@@H]3C[C@@H](O)CC(=O)O3)[C@H]21` [MEVASTATIN], the IC50 result in assay [1], in assay [2], in assay [3], in assay [4], in assay [5] and in assay [6] was “Not Active” in each case. For the same compound, the Ki result in assay [1], in assay [3] and in assay [6] was “Not Active” throughout.
Turning to `O=C(OC[C@H]1O[C@@H](OC(=O)c2cc(O)c(O)c(OC(=O)c3cc(O)c(O)c(O)c3)c2)[C@H](OC(=O)c2cc(O)c(O)c(OC(=O)c3cc(O)c(O)c(O)c3)c2)[C@@H](OC(=O)c2cc(O)c(O)c(OC(=O)c3cc(O)c(O)c(O)c3)c2)[C@@H]1OC(=O)c1cc(O)c(O)c(OC(=O)c2cc(O)c(O)c(O)c2)c1)c1cc(O)c(O)c(OC(=O)c2cc(O)c(O)c(O)c2)c1` [TANNIC ACID], the IC50 result in assay [1] was “Not Active”; in assay [2], “Not Active”; in assay [3] it was “Not Active”; in assay [4], “Not Active”; in assay [5] (read-out: IC50) it was 185 nM; in assay [6], “Not Active”. For the same compound, the Ki entry in assay [1], in assay [3] and in assay [6] was “Not Active” in each case.
For LEAD(IV) ACETATE, the 50% inhibitory concentration (IC50) entry in assay [1], in assay [2], in assay [3], in assay [4], in assay [5] and in assay [6] was “Not Active” throughout. Moreover, the Ki result in assay [1], in assay [2], in assay [3], in assay [4], in assay [5] and in assay [6] was “Not Active” each time.
On to `CC#C[C@]1(O)CC[C@H]2[C@@H]3CCC4=CC(=O)CCC4=C3[C@@H](c3ccc(N(C)C)cc3)C[C@@]21C` [MIFEPRISTONE], for which the IC50 entry in assay [1], in assay [2], in assay [3], in assay [4], in assay [5] and in assay [6] was “Not Active” each time. In addition, the Ki result in assay [1], in assay [3] and in assay [6] was “Not Active” in each case.
Regarding `Cc1[nH]c(=O)c(C#N)cc1-c1ccncc1` [MILRINONE], the half-maximal inhibitory concentration (IC50) result in assay [1], in assay [2], in assay [3], in assay [4], in assay [5] and in assay [6] was “Not Active” each time. Also, the Ki entry in assay [1], in assay [3] and in assay [6] was “Not Active” in each case.
`CCN(CC)N=O` [N-NITROSODIETHYLAMINE]: the half-maximal inhibitory concentration (IC50) entry in assay [1], in assay [2], in assay [3], in assay [4], in assay [5] and in assay [6] was “Not Active” in each case. The Ki result in assay [1], in assay [3] and in assay [6] was “Not Active” in each case.
Consider `Cc1ccc(S(=O)(=O)NC(=O)NN2CCCCCC2)cc1` [TOLAZAMIDE], for which the IC50 entry in assay [1], in assay [2], in assay [3], in assay [4], in assay [5] and in assay [6] was “Not Active” in each case. Besides, the Ki entry in assay [1], in assay [3] and in assay [6] was “Not Active” each time.
With `CC(O)C(=O)O` (stereo not drawn) [LACTIC ACID], the IC50 result in assay [1], in assay [2], in assay [3], in assay [4], in assay [5] and in assay [6] was “Not Active” throughout. For the same compound, the Ki entry in assay [1], in assay [3] and in assay [6] was “Not Active” in each case.
In the case of `CS(=O)(=O)c1ccc(C2=C(c3ccccc3)C(=O)OC2)cc1` [ROFECOXIB], the IC50 result in assay [1], in assay [2], in assay [3], in assay [4], in assay [5] and in assay [6] was “Not Active” in each case. In addition, the Ki entry in assay [1], in assay [3] and in assay [6] was “Not Active” each time.
Consider `CCOC(=O)C1=C(C)NC(C)=C(C(=O)OCC)C1c1ccccc1/C=C/C(=O)OC(C)(C)C` [LACIDIPINE], for which the IC50 result in assay [1], in assay [2], in assay [3], in assay [4], in assay [5] and in assay [6] was “Not Active” each time. The Ki result in assay [1], in assay [3] and in assay [6] was “Not Active” in each case.
In the case of `CC(N)C12CC3CC(CC(C3)C1)C2` (stereo not drawn) [RIMANTADINE], the IC50 result in assay [1], in assay [2], in assay [3], in assay [4], in assay [5] and in assay [6] was “Not Active” throughout. Further, the Ki result in assay [1], in assay [3] and in assay [6] was “Not Active” in each case.
For the compound `CC(Cl)(Cl)Cl` [TRICHLOROETHANE], the half-maximal inhibitory concentration (IC50) entry in assay [1], in assay [2], in assay [3], in assay [4], in assay [5] and in assay [6] was “Not Active” throughout. Besides, the Ki result in assay [1], in assay [3] and in assay [6] was “Not Active” in each case.
For the compound `O=C(O)c1cc(/N=N/c2ccc(S(=O)(=O)Nc3ccccn3)cc2)ccc1O` [SULFASALAZINE], the half-inhibitory concentration (IC50) entry in assay [1] was “Not Active”; in assay [2] it was “Not Active”; in assay [3] it was “Not Active”; in assay [4], “Not Active”; in assay [5] (read-out: IC50), 6330 nM; in assay [6], “Not Active”. Further, the Ki result in assay [1], in assay [3] and in assay [6] was “Not Active” each time.
For the compound `Cc1cccc(C)c1NC(=O)C(C)N` (stereo not drawn) [TOCAINIDE], the IC50 result in assay [1], in assay [2], in assay [3], in assay [4], in assay [5] and in assay [6] was “Not Active” each time. Further, the Ki entry in assay [1], in assay [3] and in assay [6] was “Not Active” throughout.
In the case of `CO[C@@]12[C@H](COC(N)=O)C3=C(C(=O)C(C)=C(N)C3=O)N1C[C@@H]1N[C@@H]12` [MITOMYCIN], the IC50 entry in assay [1], in assay [2], in assay [3], in assay [4], in assay [5] and in assay [6] was “Not Active” throughout. Also, the Ki result in assay [1], in assay [3] and in assay [6] was “Not Active” throughout.
For the compound `Nc1nc(N)c2nc(-c3ccccc3)c(N)nc2n1`, the IC50 entry in assay [1], in assay [2], in assay [3], in assay [4], in assay [5] and in assay [6] was “Not Active” each time. Moreover, the Ki result in assay [1], in assay [3] and in assay [6] was “Not Active” each time.
Consider `CC1=C(/C=C/C(C)=C/C=C/C(C)=C/C(=O)O)C(C)(C)CCC1` [TRETINOIN], for which the IC50 entry was “Not Active” in assay [1]; “Not Active” in assay [2]; “Not Active” in assay [3]; “Not Active” in assay [4]; 576 nM in assay [5] (read-out: IC50); “Not Active” in assay [6]. Also, the Ki result in assay [1], in assay [3] and in assay [6] was “Not Active” in each case.
Turning to `CC[C@@]1(O)C(=O)OCc2c1cc1n(c2=O)Cc2cc3c(CN(C)C)c(O)ccc3nc2-1` [TOPOTECAN], the half-maximal inhibitory concentration (IC50) result in assay [1], in assay [2], in assay [3], in assay [4], in assay [5] and in assay [6] was “Not Active” throughout. Moreover, the Ki entry in assay [1], in assay [3] and in assay [6] was “Not Active” each time.
